Data as given in ChEMBL document CHEMBL5241120, “Insights into the medicinal chemistry of heterocycles integrated with a pyrazolo[1,5-a]pyrimidine scaffold” (RSC Med Chem, 2022).
Converted amounts (≈) assume the structure as drawn.

Legend:
[1] = test system: Pseudomonas aeruginosa; assay: Antibacterial activity against Pseudomonas aeruginosa assessed as zone of inhibition; assay type: functional
[2] = test system: Bacillus subtilis; assay: Antibacterial activity against Bacillus subtilis assessed as zone of inhibition; assay type: functional
[3] = test system: HepG2; assay: Cytotoxicity against human HepG2 cells by MTT assay; assay type: functional, cell-based
[4] = test system: MCF7; assay: Cytotoxicity against human MCF7 cells by MTT assay; assay type: functional, cell-based
[5] = test system: HCT-116; assay: Cytotoxicity against human HCT-116 cells by MTT assay; assay type: functional, cell-based
[6] = test system: SiHa; assay: Cytotoxicity against human SiHa cells by MTT assay; assay type: functional, cell-based
[7] = test system: HeLa; assay: Cytotoxicity against human HeLa cells by MTT assay; assay type: functional, cell-based
[8] = test system: Staphylococcus aureus; assay: Antibacterial activity against Staphylococcus aureus assessed as zone of inhibition; assay type: functional
[9] = test system: Escherichia coli; assay: Antibacterial activity against Escherichia coli assessed as zone of inhibition; assay type: functional
[10] = test system: Panel NCI-60 (60 carcinoma cell lines); assay: Cytotoxicity against human Panel NCI-60 (60 carcinoma cell lines); assay type: functional; parameters: concentration or dose not given beside the values

`NC(=O)c1c(Nc2ccc(Br)cc2)nn2c3c(cnc12)CCCC3` was tested, and the “inhibition zone (IZ)” value [1] was 9 mm and the “inhibition zone (IZ)” value [2] was 9 mm.

`COc1ccc(-c2ccnc3c(C(N)=O)c(Nc4ccc(Cl)cc4)nn23)cc1` showed an IC50 [3] of 72.2 µM.

`Nc1nc2c(/N=N/c3ccc(C(F)(F)F)cc3)c(N)nn2c(N)c1/N=N/c1ccc(S(=O)(=O)Nc2ncccn2)cc1` showed an IC50 [3] of 3.4 µg/mL, an IC50 [4] of 1.4 µg/mL and an IC50 [5] of 2.4 µg/mL (≈ 4.02 µM).

`COc1cc(CNc2ccccc2C(=O)N2CCN(C(=O)c3cc(-c4cc(OC)c(OC)c(OC)c4)n4nc(-c5ccccc5)cc4n3)CC2)cc(OC)c1OC` gave an IC50 [6] of 1.91 µM and an IC50 [7] of 1.51 µM.

Molecule `COc1ccc(-c2cc(-c3nn4cc(-c5ccncc5)cnc4c3S(=O)(=O)c3cc(OC)cc(OC)c3)on2)cc1` has an IC50 [6] of 0.99 µM.

`COc1cc(-c2cc(C(=O)N3CCN(C(=O)c4ccccc4NCc4ccco4)CC3)nc3cc(-c4ccccc4)nn23)cc(OC)c1OC` gave an IC50 [6] of 1.61 µM and an IC50 [7] of 1.54 µM.

`CC1=CC(c2ccccc2)n2nc(C)cc2N1` (stereo not drawn) was tested, and the IC50 [3] was 24.8 µg/mL, the IC50 [4] was 23.5 µg/mL and the IC50 [5] was 22.6 µg/mL (≈ 100 µM).

With `Nc1nc2c(/N=N/c3ccc(C(F)(F)F)cc3)c(N)nn2c(N)c1/N=N/c1nccs1` the IC50 [3] was 4.1 µg/mL.

With `NC(=O)c1c(Nc2ccc(Br)cc2)nn2c(-c3ccc(Br)cc3)ccnc12` the “inhibition zone (IZ)” value [8] was 9 mm, the “inhibition zone (IZ)” value [1] was 9 mm and the “inhibition zone (IZ)” value [9] was 9 mm. For the same molecule, the “inhibition zone (IZ)” value [2] was 9 mm.

With `COC(=O)c1cnc2c(C(=O)Nc3ccccc3)cnn2c1C` the “inhibition zone (IZ)” value [8] was 19 mm.

For `O=C(Nc1ccccc1-c1ccnc2c(C(=O)NCc3ccc(F)cc3)cnn12)c1c(Cl)cc(Cl)cc1Cl`, the IC50 [7] was 8.7 µM.

With `COc1ccc(-c2cc(-c3nn4cc(-c5ccncc5)cnc4c3S(=O)(=O)c3ccc([N+](=O)[O-])cc3)on2)cc1` the IC50 [6] was 2.1 µM.

In the case of `CCOC(=O)c1cnn(-c2cc(C)nc3c(C#N)cnn23)c1N`, the “inhibition zone (IZ)” value [9] is reported as 15.4 mm and the “inhibition zone (IZ)” value [2] is reported as 17.1 mm.

Work on `COc1ccc(Nc2nn3c(O)cc(C)nc3c2C(=O)Nc2ccccc2)c(OC)c1` yielded an Activity [10] of 0.5%.

`COc1ccc(Nc2nn3c(O)cc(C)nc3c2C(N)=O)c(OC)c1` showed an Activity [10] of 0.5%.

For `NC(=O)c1c(Nc2ccccc2)nn2c3c(cnc12)CCC3`, the “inhibition zone (IZ)” value [1] was 9 mm and the “inhibition zone (IZ)” value [2] was 9 mm.

For `CNc1nn2c(-c3ccccc3)ccnc2c1C(N)=O`, the “inhibition zone (IZ)” value [1] was 9 mm and the “inhibition zone (IZ)” value [2] was 9 mm.

For `COc1ccc(Nc2nn3c(N)c(C#N)c(-c4cc(OC)ccc4OC)nc3c2C(=O)Nc2ccc(Cl)cc2)cc1`, the “inhibition zone (IZ)” value [9] was 16 mm and the “inhibition zone (IZ)” value [2] was 21 mm.

For `COc1ccc(Nc2nn3c(O)cc(-c4ccccc4)nc3c2C(N)=O)c(OC)c1`, the Activity [10] was 0.5%.

In the case of `NC(=O)c1c(Nc2ccc(Br)cc2)nn2c3c(cnc12)CCCCCC3`, the “inhibition zone (IZ)” value [1] is reported as 9 mm and the “inhibition zone (IZ)” value [2] is reported as 9 mm.

With `NC(=O)c1c(Nc2ccc(Br)cc2)nn2c(-c3ccccc3)ccnc12` the “inhibition zone (IZ)” value [1] was 9 mm, the “inhibition zone (IZ)” value [9] was 9 mm and the “inhibition zone (IZ)” value [2] was 9 mm.

For `COc1ccc(Nc2nn3c(O)cc(C)nc3c2C(=O)Nc2ccc(C)cc2)c(OC)c1`, the Activity [10] was 0.5%.

`Nc1nn2c(-c3ccc(S(=O)(=O)c4ccccc4)cc3)ccnc2c1/N=N/c1ccccc1` was tested, and the “inhibition zone (IZ)” value [2] was 26.5 mm.

In the case of `COc1ccc(-c2cc(C(=O)N3CCN(C(=O)c4ccccc4NCc4ccco4)CC3)nc3cc(-c4ccccc4)nn23)cc1OC`, the IC50 [7] is reported as 1.56 µM.

`COc1ccc(Nc2nn3c(N)c(C#N)c(-c4cccc(C)c4)nc3c2C(=O)Nc2ccccc2)cc1` was tested, and the “inhibition zone (IZ)” value [9] was 16 mm and the “inhibition zone (IZ)” value [2] was 20 mm.

Molecule `COc1ccc(-c2cc(C(=O)N3CCN(C(=O)c4ccccc4NCc4cccc5c4OCO5)CC3)nc3cc(-c4ccccc4)nn23)cc1` has an IC50 [7] of 1.95 µM.

`COc1ccc(Nc2nn3c4c(cnc3c2C(=O)Nc2ccc(Cl)cc2)C(=O)CC(C)(C)C4)cc1` was tested, and the IC50 [3] was 72.2 µM.

In the case of `COc1ccc(NC(=O)c2c(Nc3ccc(OC)cc3OC)nn3c(O)cc(-c4ccccc4)nc23)c(OC)c1`, the Activity [10] is reported as 0.5%.

`NC(=O)c1c(Nc2ccccc2)nn2c(-c3ccc(Br)cc3)ccnc12` was tested, and the IC50 [3] was 76.2 µM, the IC50 [4] was 64 µM and the “inhibition zone (IZ)” value [2] was 9 mm.

`COc1ccc(NC(=O)c2c(Nc3ccc(OC)cc3OC)nn3c(O)cc(C)nc23)c(OC)c1` showed an Activity [10] of 0.5%.

`COc1ccc(Nc2nn3c(C)cc(C)nc3c2C(=O)Nc2ccc(C)cc2)c(OC)c1` showed an Activity [10] of 0.5%.

For `NC(=O)c1c(Nc2ccc(Br)cc2)nn2c(-c3ccc(Cl)cc3)ccnc12`, the “inhibition zone (IZ)” value [8] was 9 mm.

`O=C(Nc1ccccc1)c1cnn2c(-c3ccc([N+](=O)[O-])cc3)ccnc12` was tested, and the “inhibition zone (IZ)” value [9] was 11 mm.

In the case of `NC(=O)c1c(Nc2ccccc2)nn2c(-c3ccc(O)cc3)ccnc12`, the “inhibition zone (IZ)” value [8] is reported as 9 mm, the “inhibition zone (IZ)” value [1] is reported as 9 mm and the “inhibition zone (IZ)” value [9] is reported as 9 mm. The “inhibition zone (IZ)” value [2] was 9 mm.

With `COc1cc(-c2cc(C(=O)N3CCN(C(=O)c4ccccc4NCc4cccc5c4OCO5)CC3)nc3cc(-c4ccccc4)nn23)cc(OC)c1OC` the IC50 [7] was 1.76 µM.

With `COc1ccc(Nc2nn3c(O)cc(-c4ccccc4)nc3c2C(=O)Nc2ccccc2)c(OC)c1` the Activity [10] was 0.5%.

For `NC(=O)c1c(Nc2ccccc2)nn2c(-c3ccc(Cl)cc3)ccnc12`, the “inhibition zone (IZ)” value [1] was 9 mm, the IC50 [3] was 86.6 µM and the IC50 [4] was 63.2 µM. The “inhibition zone (IZ)” value [2] was 9 mm.
